# Assay results from patent US10759754B2, “Aminobenzoic acid derivatives for use as anti-inflammatory agents, anti-metastatic agents and/or anticancer agents” (3R VALO, S.E.C., priority 2016, dated 2020).
# “Also recorded” adds a separate entry of the source.
# Assays:
# [1] = tested on: STAT1; assay: Western blot of phosphorylated STAT1 in IFNγ-activated human macrophages; assay type: cell-based; conditions: human macrophages pretreated 30 min at 10 and 50 μM; 30 min activation with 50 U/mL IFNγ
# Experimental: Cell signaling studies: THP1-derived human macrophages (750×10^3 cells/mL) and MB49-I cells (500×10^3 cells/mL) were pretreated for 30 min with vehicle (DMSO), compounds 4 and 5, at 10, 25 or 50 μM; and then washed and recovered immediately (t=0 min) or after 30 min of activation with 50 U/mL IFNγ, 25 ng/mL IL6, or 10 ng/mL TNFα. Cell lysates were prepared and analyzed by immunoblotting as described.^21-23,25 Briefly, protein samples were resolved by SDS-PAGE under reducing conditions and transferred onto a PVDF membrane. Blots were first probed with rabbit polyclonal antibodies against phospho-STAT1 (pSTAT1), pSTAT3, or p-IκB (all at 1:2000) overnight at 4° C. Blots were then incubated with HRP-conjugated goat anti-rabbit IgG Ab (1:3000) for 1 h at room temperature. The same blots were stripped and then probed with anti-STAT1 or anti-STAT3 Abs (both at 1:1000). In both cases, probed molecules were visualized using an enhancement chemiluminescence detection kit (Thermo Fisher Scientific).
# [2] = tested on: CD40; assay: Flow cytometry of CD40 surface antigen in IFNγ-activated human macrophages; assay type: cell-based; conditions: compound 4 at 10 μM, compound 5 at 25 μM
# Experimental: Surface antigen expression analysis. To study membrane receptor expression, THP1-derived human macrophages (750×10^4 cells/mL) were pretreated for 3 h with DMSO or compounds 4 and 5, and then left untreated (control) or treated for 48 h with 50 U/mL IFNγ. The expression level of MHC-II and CD40 was evaluated by flow cytometry as described.^21-23
# [3] = tested on: NFκB; assay: NFκB-responsive luciferase assay in MB49-I cells; assay type: cell-based, murine; conditions: 50 μM
# Description: Luciferase assay. To assess the transcriptional activity of NFκB in response to TNFα, MB49-I cells cultured in monolayers (7.5×10^4 cells/well in 24-well plates) were transiently transfected with an expression vector allowing the transcription of the firefly luciferase reporter gene under the control of CMV promoter and tandem repeats of the NFκB transcriptional response element. The luciferase gene encodes a 61-kDa enzyme that oxidizes D-luciferin in the presence of ATP, oxygen, and Mg^++, yielding a […] product that can be quantified by measuring the released light. Transfection was performed using Opti-MEM reduced serum media and Lipofectamine 2000 (Thermo Fisher Scientific). Then, MB49-I cells were pretreated for 30 min with vehicle (DMSO) and compound 4 (at 10 μM or 30 μM); and then washed and recovered after 24 h of activation with 10 ng/mL or 50 ng/mL TNFα. Cell lysates were mixed with Luciferase assay reagent (a mixture of luciferine, coenzyme A, ATP and Mg^2+) and the light produced was measured using a luminometer.
# [4] = tested on: MB49-I tumors; assay: Ectopic UBC model, MB49-I tumors implanted in the flank of male mice; assay type: in vivo
# Experimental: Ectopic UBC model. Male C57BL/6J mice (6-8 weeks old), each weighing 15-18 g, were used for the experiments (supplied by Charles River). The mice were housed with free access to food and water on a 12:12 h light:dark cycle with the room temperature maintained at 21° C. MB49 cells, MB49-I cells, and iNOS-deficient MB49-I cells ([…] in 100 μL PBS) were injected subcutaneously (s.c.) into the right flank of the mice. Growth rates of the s.c. tumors were monitored. The size of tumors was determined every 3 days for 24-28 days using a digital caliper and by measuring luciferin luminescence at days 15 and 25 using the IVIS imaging system. A blinded observer measured tumor length and width. The volume of the tumor was calculated from the formula: Length×width2×0.52, where length and width were tumor diameters measured with calipers in mutually perpendicular directions. At a tumor size of approximately 10 mm^3 the mice were divided into different groups. A control group received PBS as treatment. As indicated, other groups were treated at different doses (90, 150 or 300 μM) with an intraperitoneal (i.p.) injection of compounds 4 or 8 every 3-4 days for 18-20 days.^24,27
# [5] = tested on: MB49-I tumors; assay: Orthotopic UBC model, MB49-I tumors implanted in the bladder of female mice; assay type: in vivo; conditions: i.p. biweekly at 150 μM during two weeks
# Experimental: Orthotopic UBC model. Female C57BL/6J mice (6-8 weeks old), each weighing 15-18 g, were anesthetized and a 24-gauge Teflon catheter was introduced into the bladder lumen through the urethra. To prepare the bladder for tumor implantation, a point lesion was induced in the bladder wall by electrocauterization. Then, 1×10^5 of MB49-I cells in 100 μl of PBS were instilled into the bladder. When indicated, control mice were electrocauterized and PBS was instilled into the bladder. Syringes containing the cell suspension were maintained into the catheter for 20 min to allow cell attachment to the bladder wall.^24,27
# [6] = tested on: peritoneal macrophages; assay: NO and urea production in peritoneal macrophages after in vivo treatment of MB49 tumor-bearing mice; conditions: treatment at 90 and 150 μM; macrophages recovered day 26
# Experimental: Evaluation of NO and Urea production by chemical methods. The MB49-I cells and the J774A.1 cells (25×10^3 cells/well) were grown and pretreated, as indicated, with various anti-inflammatory derivatives, precursors and mono-functional derivatives for a period of 3 h. Afterwards the cells were washed twice with 10% FBS RPMI-1640 and then activated to produce NO for a period of 24 h with cytokines INFγ and TNFα. NO production was measured using the Griess reagent method as previously described.^27 This method involves the detection of nitrite ions (NO2^−) formed by the spontaneous oxidation of NO under physiological conditions. […] In the presence of NO2^−, sulfanilic acid is converted to a diazonium salt, which in turn is coupled to N-(1-naphthyl)ethylenediamine to produce a pink coloration that is measured with a spectrophotometer (Biotek, synergy HT) at 548 nm. In the same manner, urea synthesis through arginase-1 activity was measured using commercially available kit.
# Ectopic UBC model. […] Growth rates of the s.c. tumors were monitored. The size of tumors was determined every 3 days for 24-28 days using a digital caliper and by measuring luciferin luminescence at days 15 and 25 using the IVIS imaging system. A blinded observer measured tumor length and width. […]
compound,measurement,setting,value
"CC(C)(C)OC(=O)NNC(=O)c1ccc(N2C(=O)C=CC2=O)cc1 [Compound 4, N′-[4-(2,5-dioxo-2,5-dihydro-pyrrol-1-yl)-benzoyl]-hydrazine carboxylic acid tert-butyl ester]",IFNγ-induced STAT1 activation (ratio of phosphorylated/no phosphorylated proteins),[1],decreased; also recorded: efficiently inhibited
same,IFNγ-induced CD40 expression,[2],effective in reducing; also recorded: efficiently inhibited
same,NFκB activation (luciferase assay),[3],efficiently inhibited
same,histological examination of lung specimens,[4]; i.p. 150 μM,no metastatic foci
same,number of lung metastases,[4]; i.p. 150 μM,significant decrease; also recorded: significantly reduce
same,size of subcutaneously implanted MB49-I tumors,[4]; i.p. 150 μM,significantly reduce
same,tumor development of MB49-I cells subcutaneously implanted,[4]; i.p. 150 μM,significant decrease; also recorded: significantly affects
same,tumor volume of muscle-invasive MB49-I tumors,"[4]; i.p. 150 μM during 18 days, tumors recovered day 20",anti-proliferative activity
same,development of muscle-invasive MB49-I tumors in the bladder,[5],stopped; also recorded: completely abolished
same,NO production in peritoneal macrophages,[6],significant decrease; also recorded: significantly decrease
same,urea synthesis and release in peritoneal macrophages,[6],significant decrease; also recorded: significantly decrease
